Experimental data taken from ChEMBL document CHEMBL2203203, “Structure-activity relationships of 2-arylamido-5,7-dihydro-4H-thieno[2,3-c]pyran-3-carboxamide derivatives as cannabinoid receptor agonists and their analgesic action” (Bioorg Med Chem Lett, 2012).
Active and inactive are the calls of the source.

Columns and labels:
Cannabinoid receptor 1 [1] = target: T1, Cannabinoid receptor 1 (Homo sapiens, UniProt P21554); assay: Displacement of [3H]-CP55,940 from human CB1 receptor after 60 mins by microscintillation counting analysis
T1 sequence (P21554 whole entry): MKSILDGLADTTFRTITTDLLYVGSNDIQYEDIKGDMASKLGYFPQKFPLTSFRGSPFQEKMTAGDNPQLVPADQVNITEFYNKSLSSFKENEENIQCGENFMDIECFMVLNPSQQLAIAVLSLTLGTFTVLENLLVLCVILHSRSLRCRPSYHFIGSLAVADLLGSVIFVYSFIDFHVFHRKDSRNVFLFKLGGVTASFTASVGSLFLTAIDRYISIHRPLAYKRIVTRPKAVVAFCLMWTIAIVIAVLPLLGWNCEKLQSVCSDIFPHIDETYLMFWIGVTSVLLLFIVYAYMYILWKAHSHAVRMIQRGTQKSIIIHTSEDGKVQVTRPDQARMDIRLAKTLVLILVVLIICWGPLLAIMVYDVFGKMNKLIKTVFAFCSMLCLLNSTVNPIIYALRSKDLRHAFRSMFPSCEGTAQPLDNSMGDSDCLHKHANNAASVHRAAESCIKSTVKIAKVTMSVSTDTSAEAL

Cannabinoid receptor 2 [2] = target: T2, Cannabinoid receptor 2 (Homo sapiens, UniProt P34972); assay: Displacement of [3H]-CP55,940 from human CB2 receptor after 60 mins by microscintillation counting analysis
T2 sequence (P34972 whole entry): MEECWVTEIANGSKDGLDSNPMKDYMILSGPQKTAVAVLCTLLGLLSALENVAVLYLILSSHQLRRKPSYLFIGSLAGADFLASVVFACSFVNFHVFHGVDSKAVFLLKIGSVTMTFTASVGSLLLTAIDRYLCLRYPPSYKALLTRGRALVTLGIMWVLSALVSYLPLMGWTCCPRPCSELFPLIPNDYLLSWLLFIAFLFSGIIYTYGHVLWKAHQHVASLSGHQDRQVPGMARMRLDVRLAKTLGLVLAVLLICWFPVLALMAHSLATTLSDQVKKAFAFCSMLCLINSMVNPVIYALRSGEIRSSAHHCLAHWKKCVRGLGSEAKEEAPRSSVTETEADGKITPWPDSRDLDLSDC

Homo sapiens = species: Homo sapiens; assay: Selectivity ratio of EC50 for human CB1 receptor to EC50 for human CB2 receptor
Cannabinoid receptor 1 [3] = target: T1, Cannabinoid receptor 1; assay: Agonist activity at human CB1 receptor after 4 hrs by luciferase reporter gene assay; format: functional
Cannabinoid receptor 1 [4] = target: T1, Cannabinoid receptor 1; assay: Agonist activity at human CB1 receptor after 4 hrs by luciferase reporter gene assay relative to control; format: functional
Cannabinoid receptor 2 [5] = target: T2, Cannabinoid receptor 2; assay: Agonist activity at human CB2 receptor after 4 hrs by luciferase reporter gene assay relative to control; format: functional
Cannabinoid receptor 2 [6] = target: T2, Cannabinoid receptor 2; assay: Agonist activity at human CB2 receptor after 4 hrs by luciferase reporter gene assay; format: functional
Mus musculus = assay: Analgesic activity in NMRI mouse assessed as inhibition of acetic acid-induced writhing at 30 mg/kg, po measured for 30 mins relative to vehicle-treated control; format: functional; conditions: for inhibition in vivo at 30 mg/kg: 0.5 h
Cannabinoid receptor 1 [7] = target: Cannabinoid receptor 1 (Rattus norvegicus, UniProt P20272); assay: Displacement of [3H]-CP55,940 from rat CB1 receptor after 60 mins by microscintillation counting analysis
Cannabinoid receptor 1 (Rattus norvegicus, UniProt P20272), sequence (P20272 whole entry): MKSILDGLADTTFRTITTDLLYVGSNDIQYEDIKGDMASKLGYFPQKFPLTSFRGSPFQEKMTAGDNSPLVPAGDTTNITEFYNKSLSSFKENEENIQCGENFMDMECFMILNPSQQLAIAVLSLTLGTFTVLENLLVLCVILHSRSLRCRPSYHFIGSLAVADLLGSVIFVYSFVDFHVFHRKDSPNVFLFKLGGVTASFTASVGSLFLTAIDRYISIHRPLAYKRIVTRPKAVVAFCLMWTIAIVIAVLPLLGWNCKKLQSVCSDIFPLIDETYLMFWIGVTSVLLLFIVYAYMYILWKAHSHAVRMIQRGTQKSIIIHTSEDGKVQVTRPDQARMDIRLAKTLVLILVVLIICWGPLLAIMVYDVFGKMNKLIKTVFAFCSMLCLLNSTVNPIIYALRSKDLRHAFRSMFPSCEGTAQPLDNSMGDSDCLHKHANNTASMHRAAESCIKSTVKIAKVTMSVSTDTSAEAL

[8] = Half life in mouse liver microsomes; format: ADME, Microsome
Cannabinoid receptor 2 [9] = target: T3, Cannabinoid receptor 2 (Rattus norvegicus, UniProt Q9QZN9); assay: Displacement of [3H]-CP55,940 from rat CB2 receptor after 60 mins by microscintillation counting analysis
T3 sequence (Q9QZN9 whole entry): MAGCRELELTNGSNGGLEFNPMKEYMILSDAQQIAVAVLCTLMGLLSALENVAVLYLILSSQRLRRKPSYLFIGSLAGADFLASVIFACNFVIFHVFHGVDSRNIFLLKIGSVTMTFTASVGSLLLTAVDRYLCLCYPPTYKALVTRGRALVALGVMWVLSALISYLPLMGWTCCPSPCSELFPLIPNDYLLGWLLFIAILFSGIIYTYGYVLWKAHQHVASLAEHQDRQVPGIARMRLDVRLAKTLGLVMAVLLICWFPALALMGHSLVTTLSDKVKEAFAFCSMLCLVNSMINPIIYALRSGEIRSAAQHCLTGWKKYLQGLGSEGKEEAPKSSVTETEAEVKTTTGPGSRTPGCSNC

[10] = Half life in rat liver microsomes; format: ADME, Microsome
Rattus norvegicus [11] = assay: Analgesic activity in carrageenan-induced Sprague-Dawley rat allodynia model assessed as increase in paw withdrawal threshold at 30 to 100 mg/kg, po after 30 mins; format: functional, organism-based
Rattus norvegicus [12] = assay: Analgesic activity in carrageenan-induced Sprague-Dawley rat allodynia model assessed as increase in paw withdrawal threshold at 10 to 30 mg/kg, po after 90 mins; format: functional, organism-based
Rattus norvegicus [13] = assay: Analgesic activity in carrageenan-induced Sprague-Dawley rat allodynia model assessed as effect on paw withdrawal threshold at 10 mg/kg, po after 30 mins; format: functional, organism-based; parameters: dose 10 mg/kg
[14] = Oral bioavailability in rat at 3 mg/kg; format: ADME, organism-based; conditions: in vivo
[15] = Tmax in rat at 3 mg/kg, po; format: ADME, organism-based; parameters: dose 3 mg/kg, route oral; conditions: in vivo
[16] = Clearance in rat at 1 mg/kg, iv; format: ADME, organism-based; parameters: dose 1 mg/kg, route intravenous; conditions: in vivo
[17] = AUC in rat at 1 mg/kg, iv; format: ADME, organism-based; parameters: dose 1 mg/kg, route intravenous; conditions: plasma
[18] = Half life in human liver microsomes; format: ADME, Microsome
[19] = Volume of distribution at steady state in rat at 1 mg/kg, iv; format: ADME, organism-based; parameters: dose 1 mg/kg, route intravenous; conditions: in vivo, read-out: Vdss
[20] = Half life in rat at 3 mg/kg, po; format: ADME, organism-based; parameters: dose 3 mg/kg, route oral; conditions: in vivo
[21] = Half life in rat at 1 mg/kg, iv; format: ADME, organism-based; parameters: dose 1 mg/kg, route intravenous; conditions: in vivo
[22] = target: Cannabinoid receptor 2 (Mus musculus) (UniProt P47936); assay: Agonist activity at mouse CB2 receptor after 4 hrs by luciferase reporter gene assay relative to control; format: functional
Cannabinoid receptor 2 (Mus musculus), sequence (P47936 whole entry): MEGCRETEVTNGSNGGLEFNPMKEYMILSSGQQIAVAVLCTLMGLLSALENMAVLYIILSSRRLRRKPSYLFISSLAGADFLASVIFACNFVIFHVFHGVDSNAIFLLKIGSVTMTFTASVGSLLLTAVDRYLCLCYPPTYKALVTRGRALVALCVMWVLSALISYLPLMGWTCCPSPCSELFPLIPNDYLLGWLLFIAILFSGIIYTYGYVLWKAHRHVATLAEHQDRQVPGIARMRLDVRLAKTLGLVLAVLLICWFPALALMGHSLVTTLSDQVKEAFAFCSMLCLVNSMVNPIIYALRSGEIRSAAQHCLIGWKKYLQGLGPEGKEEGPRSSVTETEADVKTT

Cannabinoid receptor 2 [23] = target: Cannabinoid receptor 2 (Mus musculus, UniProt P47936); assay: Agonist activity at mouse CB2 receptor after 4 hrs by luciferase reporter gene assay; format: functional
Cannabinoid receptor 2 (Mus musculus, UniProt P47936), sequence (P47936 whole entry): as above

Compound	Ki (Cannabinoid receptor 1 [1]) [µM]	Ki (Cannabinoid receptor 2 [2]) [µM]	Ratio EC50 (Homo sapiens)	EC50 (Cannabinoid receptor 1 [3]) [µM]	Efficacy (Cannabinoid receptor 1 [4]) [%]	Efficacy (Cannabinoid receptor 2 [5]) [%]	EC50 (Cannabinoid receptor 2 [6]) [µM]	inhibition in vivo at 30 mg/kg (Mus musculus) [%]	Ki (Cannabinoid receptor 1 [7]) [µM]	half-life [8] [min]	Ki (Cannabinoid receptor 2 [9]) [µM]	half-life [10] [min]	inhibition (Mus musculus)	also measured
O=C(Nc1sc2c(c1C(=O)N1CCCCC1)CCOC2)c1ccccc1C(F)(F)F	11.7	0.241	204	0.607	93	99	0.003	32	15.1	15.5	1.61	5.28		
COCCNC(=O)c1c(NC(=O)c2c(F)cccc2C(F)(F)F)sc2c1CCOC2	> 30	0.904	385	9.36	58	96	0.024		> 30	21	1.7	13.6	inactive	
O=C(Nc1sc2c(c1C(=O)N1CC(F)(F)C1)CCOC2)c1ccccc1OC(F)(F)F	> 30	0.24	420	1.97	104	104	0.0047		> 30	25.5	4.62	6.4	inactive	
COCCNC(=O)c1c(NC(=O)c2ccccc2C(F)(F)F)sc2c1CCOC2	> 30	0.999	525	8.71	45	93	0.017		> 30	19.8	2.54	17.8	inactive	
O=C(Nc1sc2c(c1C(=O)N1CC(F)(F)C1)CCOC2)c1c(F)cccc1C(F)(F)F	11.1	0.444	122	0.798	83	96	0.0065	38	13.5	51.3	0.63	14.2		Activity (Rattus norvegicus [11]): Active; Activity (Rattus norvegicus [12]): Active; Activity (Rattus norvegicus [13]): inactive; bioavailability [14]: 8%; Tmax [15]: 60 min; clearance [16]: 6.12 L/h/kg; AUC [17]: 0.165 µg·h/mL; half-life [18]: 25.4 min; Vd [19]: 3.61 L/kg; half-life [20]: 534 min; half-life [21]: 30 min
O=C(Nc1sc2c(c1C(=O)N1CCOCC1)CCCC2)c1ccccc1Cl			25	0.251	77	95	0.01							Efficacy [22]: 107%; EC50 (Cannabinoid receptor 2 [23]): 0.05 µM
O=C(Nc1sc2c(c1C(=O)N1CC(F)(F)C1)CCOC2)c1ccccc1C(F)(F)F	7.19	0.0815	118	0.296	84	106	0.0025	15	> 30	37.4	0.594	8		
O=C(Nc1sc2c(c1C(=O)N1CCCCC1)CCOC2)c1ccccc1OC(F)(F)F	19.4	0.347	98	0.925	85	101	0.0095		22.6	10	2.13	3.52	inactive	
COC1CN(C(=O)c2c(NC(=O)c3ccccc3C(F)(F)F)sc3c2CCOC3)C1	> 30	0.899	387	5.96	53	98	0.015	15	> 30	37.3	3.11	50.4		
